For assay [1], the target named is T1, human RORγt ligand binding domain (RORγt LBD) (Homo sapiens, UniProt P51449).
T1 construct: His-tag (N); TurboTEV protease cleavage site (ENLYFQG) (N); made in house; host or cells: E. coli (pHIS1, modified pET vector)
T1 sequence (P51449 258-518): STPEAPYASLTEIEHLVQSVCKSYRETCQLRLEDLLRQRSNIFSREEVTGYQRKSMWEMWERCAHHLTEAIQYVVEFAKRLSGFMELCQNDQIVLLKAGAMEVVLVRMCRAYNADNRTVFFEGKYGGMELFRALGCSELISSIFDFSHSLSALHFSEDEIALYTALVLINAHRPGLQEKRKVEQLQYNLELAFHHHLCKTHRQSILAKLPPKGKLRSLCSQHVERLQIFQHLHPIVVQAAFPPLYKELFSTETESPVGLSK
The assay is described as follows: ThermoFluor® Assay (RORγt thermal shift binding). Particulars: 0.065 mg/mL RORγt, 60 µM 1,8-ANS, pH 7.0; estimated from concentration response curves. In a few lines: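 Thermal shift of 0.065 mg/mL RORγt with 60 µM 1,8-ANS in 100 mM Hepes pH 7.0, 10 mM NaCl, 2.5 mM GSH, 0.002% Tween-20, heated at 1 °C/min; fluorescence at 500 nm. KD estimated from concentration-response of ΔTm.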

The subject of assay [2] is IL-17 production by CD4 T cells. Briefly: Human Th17 Assay (IL-17 production by CD4 T cells). The format is cell-based. Particulars: IL-17 in supernatant after 3 days, Th17 differentiation conditions. The source says: The human Thl7 assay tests the effect of RORyt modulatory compounds on IL-17 production by CD4 T cells under conditions which favor Th17 differentiation.
Total CD4^+ T cells were isolated from the peripheral blood mononuclear cells (PBMC) of healthy donors using a CD4^+ T cell isolation kit II, following the manufacturer's instructions (Miltenyi Biotec). Cells were resuspended in a medium of RPMI-1640 supplemented with 10% fetal bovine serum, penicillin, streptomycin, […], and β-mercaptoethanol and were added to 96-well plates at 1.5x10^5 per 100 µL per well. 50 µL of compound at titrated concentrations in DMSO were added into each well at final DMSO concentration at 0.2%. Cells were incubated for 1 hour, then 50 µL of Th17 cell differentiation medium was added to each well. The final concentrations of antibodies and cytokines (R&D Systems) in differentiation medium were: 3x10^6/mL anti-CD3/CD28 beads (prepared using human T cell activation/expansion kit, Miltenyi Biotec), 10 µg/mL anti-IL4, 10 µg/mL anti-IFNγ, 10 ng/mL IL1β, 10 ng/mL IL23, 50 ng/mL IL6, 3 ng/mL TGFβ and 20 U/mL IL2. Cells were cultured at 37 °C and 5% CO2 for 3 days. Supernatants were collected and the accumulated IL-17 in culture was measured by using MULTI-SPOT® Cytokine Plate following manufacture's instruction (Meso Scale Discovery). The plate was read using Sector Imager 6000, and IL-17 concentration was extrapolated from the standard curve. The IC50s were determined by GraphPad.

For 2 compounds, Kd and IC50 results are on record in patent EP3057949B1, “SECONDARY ALCOHOL QUINOLINYL MODULATORS OF ROR GAMMA T” (Janssen Pharmaceutica NV, priority 2013, dated 2015).

Consider `COc1nc2ccc(C(O)c3cnc(C)n3C)cc2c(Cl)c1Cc1ccc(C(F)(F)F)cc1` (single isomer, unassigned) [Example 15b, (4-Chloro-2-methoxy-3-(4-(trifluoromethyl)benzyl)quinolin-6-yl)(1,2-dimethyl-1H-imidazol-5-yl)methanol], for which the Kd in assay [1] is 0.069 µM. The compound further came in with an IC50 in assay [2] (Homo sapiens, CD4+ T, 72 h) of 0.12 µM.
For `COc1nc2ccc(C(O)c3cnc(C)n3C)cc2c(Cl)c1Cc1ccc(C(F)(F)F)cc1` (single isomer, unassigned) [Example 15c, (4-Chloro-2-methoxy-3-(4-(trifluoromethyl)benzyl)quinolin-6-yl)(1,2-dimethyl-1H-imidazol-5-yl)methanol], the dissociation constant Kd in assay [1] was 0.04 µM. For the same compound, the half-maximal inhibitory concentration (IC50) in assay [2] was 0.13 µM.

A word on the Kd: it is the constant that tells how readily two partners part at equilibrium. The IC50 is the point on the concentration scale where inhibition reaches its midpoint. A high value points to weaker potency.
